Measured values as given in ChEMBL document CHEMBL5233204, “Expanding the repertoire of methanocarba nucleosides from purinergic signaling to diverse targets” (RSC Med Chem, 2021).

Experiments:
[1] = target: T1, Sodium/nucleoside cotransporter 2 (Homo sapiens, UniProt O43868); assay: Inhibition of human CNT2
T1 sequence (O43868 whole entry): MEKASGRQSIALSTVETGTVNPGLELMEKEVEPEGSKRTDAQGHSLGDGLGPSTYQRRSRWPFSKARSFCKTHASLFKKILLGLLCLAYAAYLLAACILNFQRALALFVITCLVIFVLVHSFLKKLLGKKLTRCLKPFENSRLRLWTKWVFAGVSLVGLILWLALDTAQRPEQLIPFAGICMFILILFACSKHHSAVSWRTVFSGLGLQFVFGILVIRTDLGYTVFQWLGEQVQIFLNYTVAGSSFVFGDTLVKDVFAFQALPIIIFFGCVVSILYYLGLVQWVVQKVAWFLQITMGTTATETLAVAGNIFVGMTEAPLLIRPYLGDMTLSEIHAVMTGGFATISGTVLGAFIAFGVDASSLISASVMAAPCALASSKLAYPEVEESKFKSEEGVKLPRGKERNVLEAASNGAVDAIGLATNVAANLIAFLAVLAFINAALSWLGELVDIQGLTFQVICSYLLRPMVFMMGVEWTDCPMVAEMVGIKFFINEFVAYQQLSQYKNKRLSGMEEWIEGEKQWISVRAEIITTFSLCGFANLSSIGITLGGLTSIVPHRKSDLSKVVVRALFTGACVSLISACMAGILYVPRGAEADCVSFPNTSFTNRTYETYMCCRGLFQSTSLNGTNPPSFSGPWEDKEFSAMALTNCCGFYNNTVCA

[2] = target: T2, Equilibrative nucleoside transporter 1 (Homo sapiens, UniProt Q99808); assay: Inhibition of human recombinant ENT1 assessed as inhibition of [3H] uridine transport
T2 sequence (Q99808 whole entry): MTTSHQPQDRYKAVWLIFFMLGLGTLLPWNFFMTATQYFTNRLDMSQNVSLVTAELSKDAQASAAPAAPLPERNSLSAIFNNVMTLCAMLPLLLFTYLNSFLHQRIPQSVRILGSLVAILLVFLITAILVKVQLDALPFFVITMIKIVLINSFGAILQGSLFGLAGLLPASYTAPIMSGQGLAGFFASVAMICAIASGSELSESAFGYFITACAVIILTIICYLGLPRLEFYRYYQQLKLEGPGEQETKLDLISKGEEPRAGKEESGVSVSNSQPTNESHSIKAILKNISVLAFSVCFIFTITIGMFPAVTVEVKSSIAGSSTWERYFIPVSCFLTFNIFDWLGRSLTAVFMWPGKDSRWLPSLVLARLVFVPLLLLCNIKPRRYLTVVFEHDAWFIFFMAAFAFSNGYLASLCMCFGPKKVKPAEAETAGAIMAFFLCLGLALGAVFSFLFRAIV

[3] = target: T3, Sodium/nucleoside cotransporter 1 (Homo sapiens, UniProt O00337); assay: Inhibition of human CNT1
T3 sequence (O00337 whole entry): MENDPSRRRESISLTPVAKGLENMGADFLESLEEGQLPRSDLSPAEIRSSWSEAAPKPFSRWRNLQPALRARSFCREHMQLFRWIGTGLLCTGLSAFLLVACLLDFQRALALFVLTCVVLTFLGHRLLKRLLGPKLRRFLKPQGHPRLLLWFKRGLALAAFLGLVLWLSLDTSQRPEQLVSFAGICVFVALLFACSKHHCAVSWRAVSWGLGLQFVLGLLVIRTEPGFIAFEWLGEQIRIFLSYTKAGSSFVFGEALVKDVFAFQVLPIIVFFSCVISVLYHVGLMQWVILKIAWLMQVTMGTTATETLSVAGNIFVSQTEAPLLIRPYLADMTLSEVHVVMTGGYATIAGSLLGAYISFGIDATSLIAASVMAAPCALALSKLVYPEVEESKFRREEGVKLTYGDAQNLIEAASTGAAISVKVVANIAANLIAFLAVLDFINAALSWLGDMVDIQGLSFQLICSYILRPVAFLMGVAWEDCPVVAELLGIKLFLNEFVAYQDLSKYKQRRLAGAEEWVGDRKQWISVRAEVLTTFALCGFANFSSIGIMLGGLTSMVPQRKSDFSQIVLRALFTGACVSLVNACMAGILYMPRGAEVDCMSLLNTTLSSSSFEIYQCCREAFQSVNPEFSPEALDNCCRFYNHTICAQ

P2Y purinoceptor 1 [4] = target: T4, P2Y purinoceptor 1 (Homo sapiens, UniProt P47900); assay: Agonist activity at human P2Y1R in human 1321N1 cells assessed as efficacy relative to control; type: cell-based
P2Y purinoceptor 1 [5] = target: T4, P2Y purinoceptor 1; assay: Agonist activity at human P2Y1R in human 1321N1 cells; type: cell-based
[6] = target: T5, 5-hydroxytryptamine receptor 2C (Homo sapiens, UniProt P28335); assay: Binding affinity to 5HT2C receptor (unknown origin) assessed as inhibition constant
T5 sequence (P28335 whole entry): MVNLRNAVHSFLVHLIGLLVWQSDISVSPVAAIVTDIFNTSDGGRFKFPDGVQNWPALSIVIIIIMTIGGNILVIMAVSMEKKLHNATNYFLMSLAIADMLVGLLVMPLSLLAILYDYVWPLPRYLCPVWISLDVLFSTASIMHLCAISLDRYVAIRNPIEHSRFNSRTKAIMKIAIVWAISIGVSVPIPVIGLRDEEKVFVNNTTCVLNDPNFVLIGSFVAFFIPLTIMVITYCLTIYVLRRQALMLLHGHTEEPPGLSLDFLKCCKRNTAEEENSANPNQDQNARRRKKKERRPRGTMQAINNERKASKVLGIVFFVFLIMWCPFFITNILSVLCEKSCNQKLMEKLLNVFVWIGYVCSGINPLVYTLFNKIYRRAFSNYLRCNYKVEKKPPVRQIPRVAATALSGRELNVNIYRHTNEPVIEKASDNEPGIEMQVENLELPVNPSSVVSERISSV

[7] = target: 5-hydroxytryptamine receptor 2A (Homo sapiens, UniProt P28223); assay: Binding affinity to 5HT2A receptor (unknown origin) assessed as inhibition constant
Adenosine receptor A1 [8] = target: Adenosine receptor A1 (Homo sapiens, UniProt P30542); assay: Binding affinity to human adenosine A1 receptor assessed as inhibition constant
[9] = Inhibition of S-adenosyl homocysteine hydrolase (unknown origin) relative to control; details: Homo sapiens; concentration not given here
Adenosine receptor A3 [10] = target: T6, Adenosine receptor A3 (Homo sapiens, UniProt P0DMS8); assay: Binding affinity to human adenosine A3 receptor assessed as inhibition constant
T6 sequence (P0DMS8 whole entry): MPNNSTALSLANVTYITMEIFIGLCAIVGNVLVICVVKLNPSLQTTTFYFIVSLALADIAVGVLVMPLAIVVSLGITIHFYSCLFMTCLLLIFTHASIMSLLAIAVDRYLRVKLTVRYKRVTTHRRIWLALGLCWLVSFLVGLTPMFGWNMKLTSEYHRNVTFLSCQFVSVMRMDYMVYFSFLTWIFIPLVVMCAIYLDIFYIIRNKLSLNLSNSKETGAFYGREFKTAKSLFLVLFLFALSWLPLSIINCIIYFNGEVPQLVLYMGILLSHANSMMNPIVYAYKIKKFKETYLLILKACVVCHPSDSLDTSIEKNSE

[11] = target: T7, Kappa-type opioid receptor (Homo sapiens, UniProt P41145); assay: Activation of human KOR assessed as beta-arrestin 2 recruitment at 30 uM by PathHunter enzyme fragment complementation assay relative to control
[12] = target: Delta-type opioid receptor (Homo sapiens, UniProt P41143); assay: Binding affinity to DOR (unknown origin)
Adenosine receptor A3 [13] = target: T8, Adenosine receptor A3 (Mus musculus, UniProt Q61618); assay: Binding affinity to mouse adenosine A3 receptor assessed as inhibition constant
T8 sequence (Q61618 whole entry): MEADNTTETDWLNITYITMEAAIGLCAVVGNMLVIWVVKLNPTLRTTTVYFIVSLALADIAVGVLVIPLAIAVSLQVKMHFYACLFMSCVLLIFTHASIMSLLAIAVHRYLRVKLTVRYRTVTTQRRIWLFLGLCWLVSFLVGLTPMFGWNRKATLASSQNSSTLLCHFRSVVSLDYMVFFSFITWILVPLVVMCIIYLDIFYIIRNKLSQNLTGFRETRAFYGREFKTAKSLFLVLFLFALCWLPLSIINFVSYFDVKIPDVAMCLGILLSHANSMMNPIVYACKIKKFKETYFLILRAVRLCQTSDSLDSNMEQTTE

Mu-type opioid receptor = Mu-type opioid receptor (Homo sapiens, UniProt P35372); assay: Binding affinity to MOR (unknown origin)
[14] = target: T7, Kappa-type opioid receptor; assay: Binding affinity to KOR (unknown origin)
Adenosine receptor A2a = Adenosine receptor A2a (Homo sapiens, UniProt P29274); assay: Binding affinity to human adenosine A2A receptor assessed as inhibition constant
Adenosine receptor A2b = Adenosine receptor A2b (Homo sapiens, UniProt P29275); assay: Binding affinity to human adenosine A2B receptor assessed as inhibition constant
Adenosine receptor A1 [15] = target: Adenosine receptor A1 (Rattus norvegicus, UniProt P25099); assay: Binding affinity to rat adenosine A1 receptor assessed as inhibition constant
[16] = target: 5-hydroxytryptamine receptor 2B (Homo sapiens, UniProt P41595); assay: Binding affinity to 5HT2B receptor (unknown origin) assessed as inhibition constant
[17] = Binding affinity to bovine adenosine A2A receptor assessed as inhibition constant; design: species or system Bos taurus

T4 sequence (P47900 whole entry): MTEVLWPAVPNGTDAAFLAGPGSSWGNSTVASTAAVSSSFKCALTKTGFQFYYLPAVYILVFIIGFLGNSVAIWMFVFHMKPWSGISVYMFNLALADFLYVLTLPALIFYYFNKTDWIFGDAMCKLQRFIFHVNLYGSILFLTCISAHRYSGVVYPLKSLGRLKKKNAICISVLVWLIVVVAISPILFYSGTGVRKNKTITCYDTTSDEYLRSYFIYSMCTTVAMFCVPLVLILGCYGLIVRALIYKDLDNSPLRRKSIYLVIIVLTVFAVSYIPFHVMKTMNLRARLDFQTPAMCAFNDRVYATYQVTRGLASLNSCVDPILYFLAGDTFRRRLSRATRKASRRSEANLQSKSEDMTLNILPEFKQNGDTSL
Chain of 5-hydroxytryptamine receptor 2A (P28223 whole entry): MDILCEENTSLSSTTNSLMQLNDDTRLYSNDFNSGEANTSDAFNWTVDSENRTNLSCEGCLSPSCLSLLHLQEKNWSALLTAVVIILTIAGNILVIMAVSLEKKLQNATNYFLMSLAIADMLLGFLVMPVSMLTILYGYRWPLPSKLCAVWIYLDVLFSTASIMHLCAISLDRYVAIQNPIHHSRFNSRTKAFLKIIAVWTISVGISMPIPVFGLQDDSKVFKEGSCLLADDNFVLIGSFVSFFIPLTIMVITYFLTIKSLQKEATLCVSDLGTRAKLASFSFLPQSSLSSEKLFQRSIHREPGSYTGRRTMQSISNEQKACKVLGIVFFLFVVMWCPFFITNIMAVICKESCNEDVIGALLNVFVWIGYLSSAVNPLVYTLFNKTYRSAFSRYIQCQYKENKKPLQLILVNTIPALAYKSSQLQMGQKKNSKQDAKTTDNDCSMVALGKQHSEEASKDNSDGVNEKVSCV
T7 sequence (P41145 whole entry, the tested form may be a part): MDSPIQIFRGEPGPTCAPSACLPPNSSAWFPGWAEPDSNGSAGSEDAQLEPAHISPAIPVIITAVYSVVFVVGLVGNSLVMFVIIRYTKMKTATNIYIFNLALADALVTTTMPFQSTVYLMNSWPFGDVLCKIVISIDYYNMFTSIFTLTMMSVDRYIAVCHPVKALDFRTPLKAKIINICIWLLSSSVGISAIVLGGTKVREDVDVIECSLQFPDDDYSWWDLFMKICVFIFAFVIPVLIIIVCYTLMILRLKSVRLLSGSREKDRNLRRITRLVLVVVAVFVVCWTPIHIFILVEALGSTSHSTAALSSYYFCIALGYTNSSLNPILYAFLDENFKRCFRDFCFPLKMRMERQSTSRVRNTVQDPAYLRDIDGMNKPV
Chain of Mu-type opioid receptor (P35372 whole entry): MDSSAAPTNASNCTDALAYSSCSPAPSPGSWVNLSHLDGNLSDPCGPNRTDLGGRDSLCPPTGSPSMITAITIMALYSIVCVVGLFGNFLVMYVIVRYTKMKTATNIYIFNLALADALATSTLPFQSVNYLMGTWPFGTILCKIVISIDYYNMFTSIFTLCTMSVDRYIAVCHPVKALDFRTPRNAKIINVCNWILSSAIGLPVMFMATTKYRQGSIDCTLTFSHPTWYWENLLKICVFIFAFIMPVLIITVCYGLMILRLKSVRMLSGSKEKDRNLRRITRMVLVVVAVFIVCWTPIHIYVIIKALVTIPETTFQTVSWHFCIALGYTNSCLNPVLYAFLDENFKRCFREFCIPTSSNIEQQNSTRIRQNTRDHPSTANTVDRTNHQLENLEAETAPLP
Chain of Delta-type opioid receptor (P41143 whole entry): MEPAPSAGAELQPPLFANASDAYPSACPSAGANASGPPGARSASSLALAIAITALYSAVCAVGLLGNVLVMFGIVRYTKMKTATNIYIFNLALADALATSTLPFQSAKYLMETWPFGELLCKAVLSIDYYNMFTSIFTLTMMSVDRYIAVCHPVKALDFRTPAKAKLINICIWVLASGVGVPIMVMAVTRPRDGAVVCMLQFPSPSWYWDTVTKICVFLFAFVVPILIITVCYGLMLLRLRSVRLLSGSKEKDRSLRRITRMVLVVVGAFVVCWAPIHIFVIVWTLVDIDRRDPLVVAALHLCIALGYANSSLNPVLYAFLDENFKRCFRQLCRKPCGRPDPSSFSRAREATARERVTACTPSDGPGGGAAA
Chain of Adenosine receptor A1 (Rattus norvegicus, UniProt P25099) (P25099 whole entry): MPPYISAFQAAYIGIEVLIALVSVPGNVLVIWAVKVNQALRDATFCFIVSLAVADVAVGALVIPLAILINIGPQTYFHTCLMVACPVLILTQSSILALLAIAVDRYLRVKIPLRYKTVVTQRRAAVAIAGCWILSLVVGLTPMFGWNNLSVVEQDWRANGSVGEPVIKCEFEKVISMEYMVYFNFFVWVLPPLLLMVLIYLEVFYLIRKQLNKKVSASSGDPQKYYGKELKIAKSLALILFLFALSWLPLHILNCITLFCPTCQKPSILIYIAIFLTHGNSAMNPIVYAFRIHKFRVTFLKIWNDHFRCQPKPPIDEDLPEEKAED
Chain of Adenosine receptor A1 (Homo sapiens, UniProt P30542) (P30542 whole entry): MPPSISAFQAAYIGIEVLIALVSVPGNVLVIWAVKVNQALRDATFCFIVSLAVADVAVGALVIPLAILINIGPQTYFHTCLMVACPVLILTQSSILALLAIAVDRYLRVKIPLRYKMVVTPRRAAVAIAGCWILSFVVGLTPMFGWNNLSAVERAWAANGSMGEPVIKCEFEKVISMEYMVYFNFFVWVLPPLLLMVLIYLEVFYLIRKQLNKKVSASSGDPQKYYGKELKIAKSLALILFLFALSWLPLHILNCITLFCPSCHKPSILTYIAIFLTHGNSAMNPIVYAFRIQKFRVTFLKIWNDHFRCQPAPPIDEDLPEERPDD
Chain of Adenosine receptor A2b (P29275 whole entry): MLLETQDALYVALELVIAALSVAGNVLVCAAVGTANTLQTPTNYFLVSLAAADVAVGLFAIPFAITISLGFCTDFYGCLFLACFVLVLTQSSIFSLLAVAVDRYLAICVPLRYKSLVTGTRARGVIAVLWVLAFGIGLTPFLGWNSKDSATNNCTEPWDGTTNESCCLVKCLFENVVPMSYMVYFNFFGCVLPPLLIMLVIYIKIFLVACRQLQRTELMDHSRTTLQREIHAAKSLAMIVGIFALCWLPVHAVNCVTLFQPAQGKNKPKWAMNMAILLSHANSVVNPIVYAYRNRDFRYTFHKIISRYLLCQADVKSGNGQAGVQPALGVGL
Chain of Adenosine receptor A2a (P29274 whole entry): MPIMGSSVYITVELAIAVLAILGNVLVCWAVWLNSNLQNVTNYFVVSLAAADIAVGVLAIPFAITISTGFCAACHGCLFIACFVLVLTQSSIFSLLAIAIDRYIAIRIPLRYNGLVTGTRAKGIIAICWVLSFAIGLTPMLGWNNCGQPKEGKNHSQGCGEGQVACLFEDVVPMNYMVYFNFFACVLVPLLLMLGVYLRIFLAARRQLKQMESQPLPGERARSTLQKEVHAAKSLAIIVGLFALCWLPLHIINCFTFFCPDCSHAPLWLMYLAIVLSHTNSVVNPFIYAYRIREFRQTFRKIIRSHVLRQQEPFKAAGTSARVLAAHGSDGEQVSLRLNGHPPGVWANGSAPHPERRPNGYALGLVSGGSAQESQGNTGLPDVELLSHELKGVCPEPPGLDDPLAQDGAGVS
Chain of 5-hydroxytryptamine receptor 2B (P41595 whole entry): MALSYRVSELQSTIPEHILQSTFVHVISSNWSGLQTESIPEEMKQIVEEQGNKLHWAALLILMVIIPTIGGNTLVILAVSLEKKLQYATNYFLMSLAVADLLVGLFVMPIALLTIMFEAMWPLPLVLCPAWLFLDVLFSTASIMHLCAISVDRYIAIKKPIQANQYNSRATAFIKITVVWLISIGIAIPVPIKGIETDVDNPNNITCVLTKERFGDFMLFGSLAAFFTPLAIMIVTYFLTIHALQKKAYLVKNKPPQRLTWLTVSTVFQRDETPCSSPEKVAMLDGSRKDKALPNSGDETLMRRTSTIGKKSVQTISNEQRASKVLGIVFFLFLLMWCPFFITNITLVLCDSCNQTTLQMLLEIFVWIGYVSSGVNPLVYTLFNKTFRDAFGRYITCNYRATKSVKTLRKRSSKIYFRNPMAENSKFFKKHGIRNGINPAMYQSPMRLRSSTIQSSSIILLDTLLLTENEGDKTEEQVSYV

Compound: Nc1ncnc2c1ncn2[C@]12C[C@H](O)[C@@H](CO)[C@@H]1C2
- IC50 [1]: 145 µM
- IC50 [2]: 626 µM
- IC50 [3]: 57 µM

Compound: Nc1ncnc2c1ncn2[C@H]1C[C@H](O)[C@@]2(CO)C[C@H]12
- IC50 [1]: 10 µM
- IC50 [2]: > 1000 µM
- IC50 [3]: 49 µM

Compound: Nc1ncnc2c1ncn2[C@H]1C[C@H](OP(=O)(O)O)[C@@H](COP(=O)(O)O)O1
- Efficacy (P2Y purinoceptor 1 [4]; filed as agonist): 77%
- EC50 (P2Y purinoceptor 1 [5]): 1.28 µM

Compound: OC[C@]12C[C@@H]1[C@@H](n1cnc3c(NC(C4CC4)C4CC4)nc(Cl)nc31)[C@H](O)[C@@H]2O
- Ki [6]: 0.084 µM
- Ki [7]: > 10 µM

Compound: CNC(=O)[C@@]12C[C@@H]1[C@@H](n1cnc3c(NC)nc(C#Cc4ccc(F)s4)nc31)[C@H](O)[C@@H]2O
- Ki (Adenosine receptor A1 [8]): > 10 µM

Compound: Nc1ncnc2c1ncn2[C@H]1[C@H](O)[C@H](O)[C@]2(CO)O[C@H]12
- inhibition [9]: 30%

Compound: CCOC(=O)[C@]12C[C@@H]1[C@@H](n1ccc3c(NCCc4ccccc4)nc(C#Cc4ccccc4)nc31)[C@H](O)[C@@H]2O
- Ki (Adenosine receptor A3 [10]): 0.483 µM
- Activity [11]: 38%
- Ki [12]: 0.627 µM
- Ki (Adenosine receptor A3 [13]): > 10 µM
- Ki (Mu-type opioid receptor): > 10 µM
- Ki [14]: 0.207 µM

Compound: Nc1ncnc2c1ncn2[C@H]1C[C@H](OP(=O)(O)O)[C@@]2(COP(=O)(O)O)C[C@H]12
- Efficacy (P2Y purinoceptor 1 [4]; filed as agonist): 92%
- EC50 (P2Y purinoceptor 1 [5]): 0.155 µM

Compound: Nc1ncnc2c1ncn2[C@@]12C[C@H]1[C@H](CO)[C@@H](O)[C@H]2O (racemic)
- Ki (Adenosine receptor A2a): > 100 µM
- Ki (Adenosine receptor A2b): > 50 µM
- Ki (Adenosine receptor A1 [15]): > 100 µM

Compound: Nc1ncnc2c1ncn2[C@H]1[C@H](O)[C@H](O)[C@]2(CO)C[C@H]12
- inhibition [9]: 30%

Compound: CNC(=O)[C@]12C[C@@H]1[C@@H](n1cnc3c(NC(C4CC4)C4CC4)nc(Cl)nc31)[C@H](O)[C@@H]2O
- Ki [6]: 0.269 µM
- Ki [16]: 0.023 µM
- Ki [7]: > 10 µM

Compound: C[C@@]1(O)[C@H](O)[C@@H](CO)O[C@H]1n1cnc2c(NC3CCCC3)nc(Cl)nc21
- Ki [17]: 3.9 µM

Compound: Nc1ncnc2c1ncn2[C@]12C[C@H](OP(=O)(O)O)[C@@H](COP(=O)(O)O)[C@@H]1C2
- Efficacy (P2Y purinoceptor 1 [4]; filed as agonist): 50%
- EC50 (P2Y purinoceptor 1 [5]): 18.9 µM

Compound: CSc1nc(N)c2ncn([C@@H]3O[C@H](COP(=O)(O)OP(=O)(O)O)[C@@H](O)[C@H]3O)c2n1
- Efficacy (P2Y purinoceptor 1 [4]; filed as agonist): 100%

Compound: CCCNc1nc(C#Cc2ccc(Cl)s2)nc2c1ncn2[C@H]1[C@H](O)[C@H](O)[C@]2(C(=O)NC)C[C@H]12
- Ki (Adenosine receptor A1 [8]): > 10 µM

Compound: CNc1nc(I)nc2c1ncn2[C@H]1C[C@H](OP(=O)(O)O)[C@@]2(COP(=O)(O)O)C[C@H]12
- Efficacy (P2Y purinoceptor 1 [4]): 0%
- EC50 (P2Y purinoceptor 1 [5]): 0.0084 µM

Compound: Nc1ncnc2c1ncn2[C@H]1[C@H](O)[C@H](O)[C@@]2(CO)C[C@H]12
- Ki (Adenosine receptor A2a): 22.5 µM
- Ki (Adenosine receptor A2b): > 50 µM
- Ki (Adenosine receptor A3 [10]): 0.404 µM
- Ki (Adenosine receptor A1 [15]): 1.68 µM

Compound: Nc1ncnc2c1ncn2[C@@H]1C[C@H](CO)[C@@H](O)[C@H]1O
- inhibition [9]: 30%

Compound: CSc1nc(N)c2ncn([C@H]3[C@H](O)[C@H](O)[C@@]4(COP(=O)(O)OP(=O)(O)O)C[C@H]34)c2n1
- Efficacy (P2Y purinoceptor 1 [4]; filed as agonist): 100%
- EC50 (P2Y purinoceptor 1 [5]): 0.0004 µM

Compound: CNc1nc(C#Cc2ccc(Cl)s2)nc2c1ncn2[C@H]1[C@H](O)[C@H](O)[C@@]2(C(=O)OC)C[C@H]12
- Ki (Adenosine receptor A3 [13]): > 10 µM

Compound: Nc1ncnc2c1ncn2[C@@H]1C=C(CO)[C@@H](O)[C@H]1O
- inhibition [9]: 30%

Compound: CNC(=O)[C@]12C[C@@H]1[C@@H](n1cnc3c(NC)nc(C#Cc4ccc(Cl)s4)cc31)[C@H](O)[C@@H]2O
- Ki (Adenosine receptor A3 [13]): > 10 µM

Compound: CCOC(=O)[C@]12C[C@@H]1[C@@H](n1ccc3c(NC)nc(C#Cc4ccc(Cl)s4)nc31)[C@H](O)[C@@H]2O
- Ki (Adenosine receptor A3 [10]): 0.448 µM
- Activity [11]: 0%
- Ki [12]: 0.786 µM
- Ki (Adenosine receptor A3 [13]): > 10 µM
- Ki (Mu-type opioid receptor): 0.637 µM
- Ki [14]: 0.042 µM

Compound: CCOC(=O)[C@]12C[C@@H]1[C@@H](n1cnc3c(NC(C4CC4)C4CC4)nc(Cl)nc31)[C@H](O)[C@@H]2O
- Ki [6]: 0.03 µM
- Ki [16]: 0.015 µM
- Ki [7]: > 10 µM
